What was measured:
[1] = biological target: T1, aminopeptidase B (Rattus norvegicus, UniProt O09175); assay: Inhibitory Activity to Aminopeptidase B; type: biochemical; details: pH 7.0, 37° C., 30 minutes, substrate arginine-β-naphthylamide; read-out: IC50 (50% inhibitory ratio) (converted)
T1 construct: an aminopeptidase B solution purified by the same enzyme purification process as in the process by Hopsu et al; from tissue
T1 sequence (O09175 1-650): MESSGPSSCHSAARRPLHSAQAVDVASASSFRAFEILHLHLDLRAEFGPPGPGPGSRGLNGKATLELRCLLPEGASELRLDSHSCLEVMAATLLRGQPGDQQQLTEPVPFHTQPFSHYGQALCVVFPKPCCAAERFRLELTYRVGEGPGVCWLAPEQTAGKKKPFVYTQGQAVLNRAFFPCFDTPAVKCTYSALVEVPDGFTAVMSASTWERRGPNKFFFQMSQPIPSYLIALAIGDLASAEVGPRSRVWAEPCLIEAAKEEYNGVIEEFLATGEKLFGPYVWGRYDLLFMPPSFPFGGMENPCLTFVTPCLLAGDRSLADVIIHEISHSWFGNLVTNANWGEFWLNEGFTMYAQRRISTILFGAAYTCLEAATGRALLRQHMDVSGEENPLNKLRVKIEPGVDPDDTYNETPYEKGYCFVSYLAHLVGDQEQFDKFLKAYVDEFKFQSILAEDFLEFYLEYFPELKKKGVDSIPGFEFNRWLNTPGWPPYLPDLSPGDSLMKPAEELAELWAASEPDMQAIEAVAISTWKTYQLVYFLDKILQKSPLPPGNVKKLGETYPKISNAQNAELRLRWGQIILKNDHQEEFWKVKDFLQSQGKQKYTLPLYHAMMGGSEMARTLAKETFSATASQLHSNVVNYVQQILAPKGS
Description: Measurement for the inhibitory activity to aminopeptisase B was conducted by the method reported by Hopsu et al. while somewhat modifying the process [V. K. Hopsu, K. K. Makinen, G. G. Glenner; Archives of Biochemistry and Biophysics, 114, 557 (1966)].
A mixed solution (pH 7.0) prepared by adding 1.0 ml of a 0.1 M tris-hydrochloric acid buffer solution and 0.7 ml of a solution containing a test specimen to 0.3 ml of 0.1 mM arginine-β-naphthylamide was heated at 37° C. for 4 minutes. Thereafter, 0.2 ml of an aminopeptidase B solution purified by the same enzyme purification process as in the process by Hopsu et al. using Sephadex G-100 (registered Trademark) was added and reacted at 37° C. for 30 minutes. Then, 0.6 ml of a 1.0 M acetic acid buffer solution (pH 4.2) containing Garnet GBC (o-aminoazotoluenediazonium salt) at 1.0 mg/ml concentration and containing Tween 20 (registered trademark) at 1.0% concentration was further added and left for 15 minutes at room temperature, after which absorption ratio (a) at 530 nm was measured. The absorption ratio (b) for the blind solution using only the buffer solution containing no specimen was simultaneously mesured, and the inhibitory ratio to aminopeptidase B was calculated as (b-a)/b×100.
Inhibitory ratios for each of the specimens at several concentrations were determined by the above test method, from which 50% inhibitory ratios (IC50) were deduced.

[2] = isolated from culture filtrates of Streptomyces olivoreticuli; cited from earlier work
[3] = tested on: immunoresponse; details: Japanese Patent Laid-Open Publication No. 117435/1977; cited from earlier work
[4] = biological target: T1, aminopeptidase B; details: U.S. Pat. No. 4,029,547; cited from earlier work
[5] = tested on: cancer; details: Japanese Patent Laid-Open Publication No. 117435/1977; cited from earlier work

Compound | IC50 [1] | other results
CC(C)Cc1ccc(CC(N)C(O)C(=O)N[C@@H](CC(C)C)C(=O)O)cc1 (stereo partly drawn) [No. 8, Threo-(2RS)-3-amino-2-hydroxy-4-(4-iso-butylphenyl)butanoyl-(S)-leucine] | 7680 nM | –
CC(C)C[C@H](NC(=O)C(O)C(N)Cc1cccc(O)c1)C(=O)O (stereo partly drawn) [No. 16, Threo-(2RS)-3-amino-2-hydroxy-4-(3-hydroxyphenyl)butanoyl-(S)-leucine] | 277 nM | –
CC(C)C[C@H](NC(=O)C(O)C(N)Cc1ccc(C(C)C)cc1)C(=O)O (stereo partly drawn) [compound 7] | 342 nM | –
CC(C)C[C@H](NC(=O)C(O)C(N)Cc1ccc(F)cc1)C(=O)O (stereo partly drawn) [No. 12, Threo-(2RS)-3-amino-2-hydroxy-4-(4-fluorophenyl)butanoyl-(S)-leucine] | 91.9 nM | –
CC(C)C[C@H](NC(=O)C(O)C(N)Cc1ccc2ccccc2c1)C(=O)O (stereo partly drawn) [No. 5, Threo-(2RS)-3-amino-2-hydroxy-4-(2-naphthyl)butanoyl-(S)-leucine] | 279 nM | –
CC(C)COc1ccc(CC(N)C(O)C(=O)N[C@@H](CC(C)C)C(=O)O)cc1 (stereo partly drawn) [No. 11, Threo-(2RS)-3-amino-2-hydroxy-4-(4-iso-butoxyphenyl)butanoyl-(S)-leucine] | 11800 nM | –
CC(C)C[C@H](NC(=O)C(O)C(N)Cc1ccccc1O)C(=O)O (stereo partly drawn) [No. 15, Threo-(2RS)-3-amino-2-hydroxy-4-(2-hydroxyphenyl)butanoyl-(S)-leucine] | 1630 nM | –
CC(C)C[C@H](NC(=O)C(O)C(N)Cc1ccc(OC(C)C)cc1)C(=O)O (stereo partly drawn) [No. 10, Threo-(2RS)-3-amino-2-hydroxy-4-(4-iso-propoxyphenyl)butanoyl-(S)-leucine] | 18600 nM | –
CC(C)C[C@H](NC(=O)C(O)C(N)Cc1ccc(-c2ccccc2)cc1)C(=O)O (stereo partly drawn) [No. 6, Threo-(2RS)-3-amino-2-hydroxy-4-(4-phenylphenyl)butanoyl-(S)-leucine] | 9360 nM | –
CC[C@H](C)[C@H](NC(=O)C(O)C(N)Cc1ccc2ccccc2c1)C(=O)O (stereo partly drawn) [No. 13, Threo-(2RS)-3-amino-2-hydroxy-4-(2-naphthyl)butanoyl-(S)-isoleucine] | 83.7 nM | –
CC(C)C[C@H](NC(=O)C(O)C(N)Cc1cccc2ccccc12)C(=O)O (stereo partly drawn) [No. 4, Threo-(2RS)-3-amino-2-hydroxy-4-(1-naphthyl)butanoyl-(S)-leucine] | 4180 nM | –
CC(C)C[C@H](NC(=O)C(O)C(N)Cc1ccc(O)c(O)c1)C(=O)O (stereo partly drawn) [No. 9, Threo-(2RS)-3-amino-2-hydroxy-4-(3,4-dihydroxyphenyl)butanoyl-(S)-leucine] | 5290 nM | –
COc1ccccc1CC(N)C(O)C(=O)N[C@@H](CC(C)C)C(=O)O (stereo partly drawn) [No. 2, Threo-(2RS)-3-amino-2-hydroxy-4-(2-methoxyphenyl)butanoyl-(S)-leucine] | 8570 nM | –
COc1ccc(C[C@@H](N)[C@H](O)C(=O)N[C@@H](CC(C)C)C(=O)O)cc1 [No. 1, (2S,3R)-3-amino-2-hydroxy-4-(4-methoxyphenyl)butanoyl-(S)-leucine] | 17.7 nM | –
CC(C)C[C@H](NC(=O)[C@@H](O)[C@H](N)Cc1ccccc1)C(=O)O [bestatin, (2S,3R)-3-amino-2-hydroxy-4-phenylbutanoyl-(S)-leucine] | – | toxicity [2]: least toxic; effect to immunoresponse such as delayed hypersthesia [3]: increasing effect to immunoresponse such as delayed hypersthesia; in vivo defense mechanism [3]: activate in vivo defense mechanism; aminopeptidase B inhibitor [4]: aminopeptidase B inhibitor; effects for cancer [5]: inhibitive effects for cancer
COc1cccc(CC(N)C(O)C(=O)N[C@@H](CC(C)C)C(=O)O)c1 (stereo partly drawn) [No. 3, Threo-(2RS)-3-amino-2-hydroxy-4-(3-methoxyphenyl)butanoyl-(S)-leucine] | 118 nM | –
COc1ccc(C[C@@H](N)[C@H](O)C(=O)N[C@H](C(=O)O)C(C)C)cc1 [No. 14, (2S,3R)-3-amino-2-hydroxy-4-(4-methoxyphenyl)butanoyl-(S)-valine] | 216 nM | –
